Assay results taken from ChEMBL document CHEMBL4346710, “Discovery of 7H-pyrrolo[2,3-d]pyrimidine derivatives as selective covalent irreversible inhibitors of interleukin-2-inducible T-cell kinase (Itk)” (Eur J Med Chem, 2019).
The source made the active and inactive calls. The calls are words filed in the database; no cut-off is given here.

Legend:
[1] = target: RAC-alpha serine/threonine-protein kinase (Homo sapiens) (UniProt P31749); assay: Inhibition of recombinant full length human His-tagged AKT1 expressed in baculovirus expression system assessed as enzyme residual activity at 0.4 uM using fluorophore-labeled serine/threonine-06 peptide as substrate incubated for 60 mins by Z'-LYTE assay relative to control
[2] = Inhibition of tracer 236 binding to recombinant full length human C-terminal His-tagged AMPK alpha2/beta2/gamma1 expressed in baculovirus infected Sf9 cells assessed as enzyme residual activity at 0.4 uM incubated for 60 mins by Lanthascreen assay relative to control
TAK1/TAB1 (Homo sapiens) = TAK1/TAB1 (Homo sapiens) (UniProt Q15750+O43318); assay: Inhibition of tracer 222 binding to recombinant full-length human His-tagged MAP3K7/MAP3K7IP1 (437 to 504 residues) expressed in baculovirus expression system assessed as enzyme residual activity at 0.4 uM incubated for 60 mins by Lanthascreen assay relative to control
[3] = target: T1, Tyrosine-protein kinase ITK/TSK (Homo sapiens) (UniProt Q08881); assay: Inhibition of recombinant human N-terminal His6-tagged ITK (352 to 617 residues) expressed in baculovirus infected Sf21 insect cells assessed as inactivation rate constant using STK substrate by HTRF assay
T1 sequence (whole entry): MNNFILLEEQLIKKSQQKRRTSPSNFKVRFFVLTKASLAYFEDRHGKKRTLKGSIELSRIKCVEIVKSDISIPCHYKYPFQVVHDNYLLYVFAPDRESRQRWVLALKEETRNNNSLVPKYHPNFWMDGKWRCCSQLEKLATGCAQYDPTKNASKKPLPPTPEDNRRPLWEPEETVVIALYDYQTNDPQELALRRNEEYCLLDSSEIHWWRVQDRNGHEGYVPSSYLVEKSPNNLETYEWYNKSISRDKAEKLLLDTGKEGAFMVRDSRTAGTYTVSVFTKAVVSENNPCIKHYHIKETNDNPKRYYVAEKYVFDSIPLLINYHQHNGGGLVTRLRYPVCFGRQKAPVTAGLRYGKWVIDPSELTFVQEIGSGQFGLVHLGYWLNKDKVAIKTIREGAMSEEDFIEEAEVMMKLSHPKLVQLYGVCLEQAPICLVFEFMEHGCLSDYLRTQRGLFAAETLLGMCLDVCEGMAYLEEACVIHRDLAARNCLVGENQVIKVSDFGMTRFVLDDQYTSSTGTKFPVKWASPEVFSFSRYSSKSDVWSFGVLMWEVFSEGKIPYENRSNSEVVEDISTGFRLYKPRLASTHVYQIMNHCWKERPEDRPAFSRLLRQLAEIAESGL

[4] = target: T1, Tyrosine-protein kinase ITK/TSK (Homo sapiens); assay: Inhibition of ITK in human Jurkat cells assessed as reduction in anti-CD3/CD28-stimulated PLCgamma1 phosphorylation at 0.1 to 10000 nM preincubated for 2 hrs followed by anti-CD3/CD28 beads addition and measured after 30 min by Western blot analysis; type: cell-based

RAC-alpha serine/threonine-protein kinase (Homo sapiens), sequence (P31749 whole entry): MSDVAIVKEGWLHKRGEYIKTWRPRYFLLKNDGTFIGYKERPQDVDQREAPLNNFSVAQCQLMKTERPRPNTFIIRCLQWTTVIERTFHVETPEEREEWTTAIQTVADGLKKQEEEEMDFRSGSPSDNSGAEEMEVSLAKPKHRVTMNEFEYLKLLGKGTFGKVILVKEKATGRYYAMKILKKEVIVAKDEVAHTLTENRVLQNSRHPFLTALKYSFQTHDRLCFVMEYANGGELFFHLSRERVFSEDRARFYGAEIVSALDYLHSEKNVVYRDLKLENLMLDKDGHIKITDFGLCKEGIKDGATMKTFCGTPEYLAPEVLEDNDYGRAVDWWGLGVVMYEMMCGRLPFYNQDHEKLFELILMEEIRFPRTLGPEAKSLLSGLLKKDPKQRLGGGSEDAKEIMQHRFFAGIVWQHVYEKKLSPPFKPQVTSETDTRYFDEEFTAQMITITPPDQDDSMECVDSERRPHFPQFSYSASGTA

## C=CC(=O)N1CCC(Oc2nc(Nc3ccc(N4CCOCC4)cc3)nc3[nH]cc(-c4cncc(NC)n4)c23)CC1
[1]
  Activity: 96%
[2]
  Activity: 64.3%
TAK1/TAB1 (Homo sapiens)
  Activity: 0%
[3]
  K: 0.038 min⁻¹
[4]
  inhibition: Active
